Data published in patent US11426436B2, “Bacteria-comprising compositions and methods of using the same for treating and/or preventing gastrointestinal, metabolic and/or other diseases” (priority 2015, dated 2022).
Values after ≈ are worked out from the molar mass of the structure shown. Where two headings read alike, the source gives them in different places.

What was measured:
[1] = test system: Intestinimonas strain AF211; assay: Antibiotic sensitivity (MIC) of Intestinimonas strain AF211; format: cell-based, Intestinimonas butyriciproducens
Method: “Minimum inhibitory concentration” or “MIC” as used herein refers to the lowest concentration of an antimicrobial that will inhibit the visible growth of a microorganism after overnight incubation. Minimum inhibitory concentrations are important in diagnostic laboratories to confirm resistance of microorganisms to an antimicrobial agent and also to monitor the activity of new antimicrobial agents. An MIC is generally regarded as the most basic laboratory measurement of the activity of an antimicrobial agent against an organism.
Rettedal et al. (Nature Comm. (2014), 5:4714) describe the use of antibiotics to isolate and culture bacteria from the human intestinal tract. However, this approach often results in antibiotic-resistant bacteria and these are undesired in formulations aimed for human or animal use.
Strain AF211 had the following sensitivity to various antibiotics: […]

[2] = test system: Intestinimonas strain P1C2; conditions: against Intestinimonas strain P1C2, described as resistant; cited from earlier work
[3] = Intestinimonas butyriciproducens, against strain AF211, read-out: MIC

Molecule: Cc1onc(-c2ccccc2)c1C(=O)N[C@@H]1C(=O)N2[C@@H]1SC(C)(C)[C@@H]2C(=O)O [Oxacillin]
- MIC [1, 3]: 0.38 µg/mL (≈ 0.947 µM)

Molecule: CC[C@H]1OC(=O)[C@H](C)[C@@H](O[C@H]2C[C@@](C)(OC)[C@@H](O)[C@H](C)O2)[C@H](C)[C@@H](O[C@@H]2O[C@H](C)C[C@H](N(C)C)[C@H]2O)[C@](C)(O)C[C@@H](C)C(=O)[C@H](C)[C@@H](O)[C@]1(C)O [Erythromycin]
- MIC of erythromycin [2]: 32 µg/mL
- MIC ([1]; Intestinimonas butyriciproducens, against strain AF211, text value, read-out: MIC of erythromycin): 1 µg/mL
- MIC [1, 3]: 0.75 to 1 µg/mL (≈ 1.02 to 1.36 µM)

Molecule: CN[C@H](CC(C)C)C(=O)N[C@H]1C(=O)N[C@@H](CC(N)=O)C(=O)N[C@H]2C(=O)N[C@H]3C(=O)N[C@H](C(=O)N[C@H](C(=O)O)c4cc(O)cc(O)c4-c4cc3ccc4O)[C@H](O)c3ccc(c(Cl)c3)Oc3cc2cc(c3O[C@@H]2O[C@H](CO)[C@@H](O)[C@H](O)[C@H]2O[C@H]2C[C@](C)(N)[C@H](O)[C@H](C)O2)Oc2ccc(cc2Cl)[C@H]1O [Vancomycin]
- MIC ([1]; Intestinimonas butyriciproducens, AF211): 0.75 µg/mL (≈ 0.518 µM)

Molecule: Teicoplanin
- MIC ([1]; against strain AF211): 0.047 µg/mL

Molecule: NC[C@H]1O[C@H](O[C@H]2[C@H](O)[C@@H](O[C@H]3O[C@H](CO)[C@@H](O)[C@H](N)[C@H]3O)[C@H](N)C[C@@H]2N)[C@H](N)C[C@@H]1O [Tobramycin]
- MIC [1, 3]: 2 µg/mL (≈ 4.28 µM)
